Reference: patent US11629171B2, “Beta-hairpin peptidomimetics” (POLYPHOR AG, priority 2017, dated 2023)
Values after ≈ are worked out from the molar mass of the structure shown. Where a SMILES comes first, the peptide text is derived from it. Bridges are numbered along the chain shown (N, C = ends). Roman numbers before positions name the chains, in order. [ ]: non-standard residue; d: D form. The star is where a group is joined. Thr(ol) = C[C@@H](O)[C@H](N)CO; Tle = CC(C)(C)[C@H](N)C(=O)O; Hiv = CC(C)[C@H](O)C(=O)O; dDab = NCC[C@@H](N)C(=O)O; hSer = N[C@@H](CCO)C(=O)O; Dab = NCC[C@H](N)C(=O)O; NHCH2CH2OH = OCCN*

How the values were obtained:
Format in all cases: cell-based
[1] = tested on: Acinetobacter baumannii 872842; settings: 872842
Summary of the method: (§1)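 Visible-growth endpoint after 18-20 h at 35° C defines the MIC (μg/mL). Setup: CLSI broth microdilution, MH-II cation-adjusted broth with P-80 at 0.002% final, inoculum of approximately 10^6 CFU/mL, two-fold serial peptide dilutions.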

[2] = tested on: Acinetobacter baumannii DSM 30008; settings: DSM 30008
Summary of the method: as §1

[3] = tested on: Enterobacter cloacae 848840; settings: 848840
Summary of the method: as §1

Escherichia coli 926415 = settings: 926415
Summary of the method: as §1

[4] = tested on: Escherichia coli ATCC 25922; settings: ATCC 25922
Summary of the method: as §1

[5] = tested on: Klebsiella pneumoniae 968733; settings: 968733
Summary of the method: as §1

[6] = tested on: Klebsiella pneumoniae SSI #3010; settings: SSI #3010
Summary of the method: as §1

[7] = tested on: Pseudomonas aeruginosa ATCC 27853; settings: ATCC 27853
Summary of the method: as §1

[8] = tested on: human red blood cells (hRBC); test: Hemolysis; settings: red cells of human, 1 h, 200
Summary of the method: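 Hemoglobin release from PBS-washed hRBC at 20% (v/v), incubated 1 h at 37° C with peptides at 200 μg/mL, is measured at 540 nm. Values are blank corrected and given as a fraction of Triton X-100 lysis × 100%.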

Row | Compound | MIC [1] [µg/mL] | MIC [2] [µg/mL] | MIC [3] [µg/mL] | MIC (Escherichia coli 926415) [µg/mL] | MIC [4] [µg/mL] | MIC [5] [µg/mL] | MIC [6] [µg/mL] | MIC [7] [µg/mL] | Hemolysis at 200 μg/mL [8] [%]
1 | CC(C)C[C@@H]1NC(=O)[C@@H](Cc2ccccc2)NC(=O)[C@H](CCN)NC(=O)[C@@H](NC(=O)[C@H](CCN)NC(=O)[C@@H](NC(=O)[C@H](CCN)NC(=O)CC[C@@H]2NC(=O)[C@H](CCN)NC(=O)[C@H](Cc3ccc(O)cc3)NC(=O)[C@@H](NC(=O)[C@@H](O)C(C)C)CSSC[C@@H](C(=O)N[C@H](CO)[C@@H](C)O)NC(=O)[C@H](C(C)(C)C)NC(=O)[C@H](CO)NC(=O)[C@H](Cc3c[nH]c4ccccc34)NC(=O)[C@H](CCO)NC(=O)[C@@H](CCN)NC2=O)[C@@H](C)O)CCNC(=O)[C@H]([C@@H](C)O)NC(=O)[C@H](CCN)NC(=O)[C@H](CCN)NC1=O [Ex. 61] (I: H-[Hiv]CY[Dab]E[dDab][hSer]WS[Tle]C[Thr(ol)] / II: [Dab]T[Dab][Dab][Dab][dF]L[Dab][Dab]T; disulfide I:2-I:11; amide I:5-II:N; lactam II:4-II:C) | 0.125 (≈ 0.0513 µM) | 0.0625 (≈ 0.0257 µM) | 0.125 (≈ 0.0513 µM) | 0.25 (≈ 0.103 µM) | 0.125 (≈ 0.0513 µM) | 0.125 (≈ 0.0513 µM) | 0.0625 (≈ 0.0257 µM) | 0.125 (≈ 0.0513 µM) | 3
2 | CC(=O)N[C@@H](CO)C(=O)N[C@H]1CSSC[C@@H](C(=O)N[C@H](C(N)=O)C(C)C)NC(=O)[C@H](C(C)C)NC(=O)[C@H](CO)NC(=O)[C@H](Cc2c[nH]c3ccccc23)NC(=O)[C@H](CCO)NC(=O)[C@@H](CCN)NC(=O)[C@H](CCC(=O)N[C@@H](CCN)C(=O)N[C@H](C(=O)N[C@@H](CCN)C(=O)N[C@H]2CCNC(=O)[C@H]([C@@H](C)O)NC(=O)[C@H](CCN)NC(=O)[C@H](CCN)NC(=O)[C@H](CC(C)C)NC(=O)[C@@H](CC(C)C)NC(=O)[C@H](CCN)NC2=O)[C@@H](C)O)NC(=O)[C@H](CCN)NC(=O)[C@H](Cc2ccc(O)cc2)NC1=O [Ex. 62] (I: Ac-SCY[Dab]E[dDab][hSer]WSVCV-NH2 / II: [Dab]T[Dab][Dab][Dab][dL]L[Dab][Dab]T; disulfide I:2-I:11; amide I:5-II:N; lactam II:4-II:C) | 0.125 (≈ 0.0515 µM) | 0.0625 (≈ 0.0258 µM) | 4 (≈ 1.65 µM) | 0.25 (≈ 0.103 µM) | 0.125 (≈ 0.0515 µM) | 0.125 (≈ 0.0515 µM) | 0.0625 (≈ 0.0258 µM) | 0.125 (≈ 0.0515 µM) | <1
3 | CC(=O)N[C@H](C(=O)N[C@H]1CSSC[C@@H](C(=O)N[C@@H](CO)C(N)=O)NC(=O)[C@H](Cc2ccc(O)cc2)NC(=O)[C@H](CO)NC(=O)[C@H](Cc2c[nH]c3ccccc23)NC(=O)[C@H](CCO)NC(=O)[C@@H](CCN)NC(=O)[C@H](CCC(=O)N[C@@H](CCN)C(=O)N[C@H](C(=O)N[C@@H](CCN)C(=O)N[C@H]2CCNC(=O)[C@H]([C@@H](C)O)NC(=O)[C@H](CCN)NC(=O)[C@H](CCN)NC(=O)[C@H](CC(C)C)NC(=O)[C@@H](CC(C)C)NC(=O)[C@H](CCN)NC2=O)[C@@H](C)O)NC(=O)[C@H](CCN)NC(=O)[C@H](C(C)C)NC1=O)C(C)C [Ex. 64] (I: Ac-VCV[Dab]E[dDab][hSer]WSYCS-NH2 / II: [Dab]T[Dab][Dab][Dab][dL]L[Dab][Dab]T; disulfide I:2-I:11; amide I:5-II:N; lactam II:4-II:C) | 0.5 (≈ 0.206 µM) | 0.0625 (≈ 0.0258 µM) | 4 (≈ 1.65 µM) | 0.5 (≈ 0.206 µM) | 0.125 (≈ 0.0515 µM) | 1 (≈ 0.412 µM) | 0.125 (≈ 0.0515 µM) | 0.125 (≈ 0.0515 µM) | <1
4 | CC(C)C[C@@H]1NC(=O)[C@@H](CC(C)C)NC(=O)[C@H](CCN)NC(=O)[C@@H](NC(=O)[C@H](CCN)NC(=O)[C@@H](NC(=O)[C@H](CCN)NC(=O)CC[C@@H]2NC(=O)[C@H](CCN)NC(=O)[C@H](C(C)C)NC(=O)[C@@H](NC(=O)[C@@H](O)C(C)C)CSSC[C@@H](C(=O)N[C@@H](Cc3ccc(O)cc3)C(=O)NCCO)NC(=O)[C@H](C(C)(C)C)NC(=O)[C@H](CO)NC(=O)[C@H](Cc3c[nH]c4ccccc34)NC(=O)[C@H](CCO)NC(=O)[C@@H](CCN)NC2=O)[C@@H](C)O)CCNC(=O)[C@H]([C@@H](C)O)NC(=O)[C@H](CCN)NC(=O)[C@H](CCN)NC1=O [Ex. 69] (I: H-[Hiv]CV[Dab]E[dDab][hSer]WS[Tle]CY-NHCH2CH2OH / II: [Dab]T[Dab][Dab][Dab][dL]L[Dab][Dab]T; disulfide I:2-I:11; amide I:5-II:N; lactam II:4-II:C) | 0.0625 (≈ 0.0254 µM) | 0.0625 (≈ 0.0254 µM) | 0.125 (≈ 0.0509 µM) | 0.0625 (≈ 0.0254 µM) | 0.0625 (≈ 0.0254 µM) | 0.125 (≈ 0.0509 µM) | 0.0625 (≈ 0.0254 µM) | 0.125 (≈ 0.0509 µM) | 2
5 | CC(C)C[C@@H]1NC(=O)[C@@H](CC(C)C)NC(=O)[C@H](CCN)NC(=O)[C@@H](NC(=O)[C@H](CCN)NC(=O)[C@@H](NC(=O)[C@H](CCN)NC(=O)CC[C@@H]2NC(=O)[C@H](CCN)NC(=O)[C@H]([C@@H](C)O)NC(=O)[C@@H](NC(=O)[C@@H](O)C(C)C)CSSC[C@@H](C(=O)N[C@@H](Cc3ccc(O)cc3)C(=O)NCCO)NC(=O)[C@H](C(C)(C)C)NC(=O)[C@H](CO)NC(=O)[C@H](Cc3c[nH]c4ccccc34)NC(=O)[C@H](CCO)NC(=O)[C@@H](CCN)NC2=O)[C@@H](C)O)CCNC(=O)[C@H]([C@@H](C)O)NC(=O)[C@H](CCN)NC(=O)[C@H](CCN)NC1=O [Ex. 70] (I: H-[Hiv]CT[Dab]E[dDab][hSer]WS[Tle]CY-NHCH2CH2OH / II: [Dab]T[Dab][Dab][Dab][dL]L[Dab][Dab]T; disulfide I:2-I:11; amide I:5-II:N; lactam II:4-II:C) | 0.25 (≈ 0.102 µM) | 0.0625 (≈ 0.0254 µM) | 0.125 (≈ 0.0509 µM) | 0.5 (≈ 0.203 µM) | 0.125 (≈ 0.0509 µM) | 0.25 (≈ 0.102 µM) | 0.125 (≈ 0.0509 µM) | 0.125 (≈ 0.0509 µM) | <1
6 | CC(=O)N[C@H](C(=O)N[C@H]1CSSC[C@@H](C(=O)N[C@@H](Cc2ccc(O)cc2)C(=O)NCCO)NC(=O)[C@H](C(C)(C)C)NC(=O)[C@H](CO)NC(=O)[C@H](Cc2c[nH]c3ccccc23)NC(=O)[C@H](CCO)NC(=O)[C@@H](CCN)NC(=O)[C@H](CCC(=O)N[C@@H](CCN)C(=O)N[C@H](C(=O)N[C@@H](CCN)C(=O)N[C@H]2CCNC(=O)[C@H]([C@@H](C)O)NC(=O)[C@H](CCN)NC(=O)[C@H](CCN)NC(=O)[C@H](CC(C)C)NC(=O)[C@@H](CC(C)C)NC(=O)[C@H](CCN)NC2=O)[C@@H](C)O)NC(=O)[C@H](CCN)NC(=O)[C@H](CO)NC1=O)C(C)C [Ex. 71] (I: Ac-VCS[Dab]E[dDab][hSer]WS[Tle]CY-NHCH2CH2OH / II: [Dab]T[Dab][Dab][Dab][dL]L[Dab][Dab]T; disulfide I:2-I:11; amide I:5-II:N; lactam II:4-II:C) | 0.125 (≈ 0.0503 µM) | 0.0625 (≈ 0.0252 µM) | 0.25 (≈ 0.101 µM) | 0.25 (≈ 0.101 µM) | 0.0625 (≈ 0.0252 µM) | 0.25 (≈ 0.101 µM) | 0.125 (≈ 0.0503 µM) | 0.125 (≈ 0.0503 µM) | 1
7 | CC(C)C[C@@H]1NC(=O)[C@@H](CC(C)C)NC(=O)[C@H](CCN)NC(=O)[C@@H](NC(=O)[C@H](CCN)NC(=O)[C@@H](NC(=O)[C@H](CCN)NC(=O)CC[C@@H]2NC(=O)[C@H](CCN)NC(=O)[C@H](Cc3ccc(O)cc3)NC(=O)[C@@H](NC(=O)[C@@H](O)C(C)C)CSSC[C@@H](C(=O)NCCO)NC(=O)[C@H](C(C)(C)C)NC(=O)[C@H](CO)NC(=O)[C@H](Cc3c[nH]c4ccccc34)NC(=O)[C@H](CCO)NC(=O)[C@@H](CCN)NC2=O)[C@@H](C)O)CCNC(=O)[C@H]([C@@H](C)O)NC(=O)[C@H](CCN)NC(=O)[C@H](CCN)NC1=O [Ex. 72] (I: H-[Hiv]CY[Dab]E[dDab][hSer]WS[Tle]C-NHCH2CH2OH / II: [Dab]T[Dab][Dab][Dab][dL]L[Dab][Dab]T; disulfide I:2-I:11; amide I:5-II:N; lactam II:4-II:C) | 0.0625 (≈ 0.0265 µM) | 0.0625 (≈ 0.0265 µM) | 0.25 (≈ 0.106 µM) | 0.125 (≈ 0.053 µM) | 0.0625 (≈ 0.0265 µM) | 0.125 (≈ 0.053 µM) | 0.125 (≈ 0.053 µM) | 0.125 (≈ 0.053 µM) | <1
